Assay results reported in patent US12678423B2, “Therapeutic agent for amyotrophic lateral sclerosis and composition for treatment” (KEIO UNIVERSITY, priority 2016, dated 2026).

Legend:
Type in all cases: cell-based, human
[1] = tested on: motor neurons induced to differentiate from iPS cells derived from ALS patients (FUS-ALS) having a mutation in FUS; experiment: LDH leakage ratio, FUS-ALS motor neurons
Experimental: The leakage amount of LDH into the medium is an indicator of cytotoxicity. For measurement of the LDH leakage ratio, a commercially available kit (model “LDH Cytotoxicity Detection Kit”, Takara Bio Inc.) was used.
Here, ropinirole was added to the medium on days 35 to 40 from the start of the differentiation induction of each iPS cell. Here, it is assumed that days 35 to 40 from the start of differentiation induction correspond to the early stage of the ALS disease.
(§1) The improvement ratio (%) of the ALS phenotype was calculated by Equation (1).
(§2) [formula] [In Equation (1), A represents a measurement value of motor neurons induced to differentiate from iPS cells derived from ALS patients in the absence of ropinirole, and B represents a measurement value of motor neurons induced to differentiate from iPS cells derived from ALS patients in the presence of ropinirole, and C represents a measurement value of motor neurons induced to differentiate from iPS cells derived from healthy subjects in the absence of ropinirole.]
(§3) Subsequently, in the same manner as above, the efficacy in cases of administering lower concentrations of ropinirole was evaluated.
(§4) Each drug was added to the medium at a final concentration of 10 μM.

[2] = tested on: motor neurons induced to differentiate from iPS cells derived from SALS patients; experiment: Neurite length, sporadic ALS model (Example III-1); settings: final concentration 1 μM, days 35 to 40, measured on day 40, FIG. 10
Description: (§5) In the same manner as in Example I-1, iPS cells derived from sporadic ALS (may be referred to below as “SALS”) patients were differentiated into motor neurons. All the iPS cells used were derived from dermal fibroblasts. Below, each differentiated motor neuron is identified by the patient number from whom the neuron was derived.
(§6) In the same manner as in Example II-1, iPS cells derived from sporadic ALS (SALS) patients were induced to differentiate into motor neurons, and then ropinirole with a final concentration of 1 μM was added to the medium. More specifically, for the period of days 35 to 40 from the start of differentiation induction, ropinirole having a final concentration of 1 μM was added to the medium. In addition, a group for which ropinirole was not added to the medium was prepared as a control. In addition, for comparison, iPS cells derived from healthy subjects were differentiated into motor neurons in the same manner as in Example I-1. No ropinirole was added to the medium of these motor neurons. As the iPS cells derived from a healthy subject, the same cells as used in Example I-1 were used.
Subsequently, on day 40 from the start of differentiation induction, the neurite length was measured for each motor neuron in the same manner as in Example I-2.
FIG. 10 is a graph showing measurement results of the neurite length of each motor neuron. […]

[3] = tested on: motor neurons induced to differentiate from iPS cells derived from ALS patients (FUS-ALS) having a mutation in FUS; experiment: Ectopic localization of FUS protein in the cytoplasm, FUS-ALS motor neurons
Description: Therefore, on day 40 from the start of differentiation induction, each differentiation-induced motor neuron in Example I-1 was immunostained and the localization of FUS protein in the cytoplasm was examined.
(§7) Using the differentiation-induced motor neurons in Example I-1, drugs which cause the ALS phenotype to be restored were screened from existing drug libraries with the neurite length, ectopic localization of FUS protein, stress granule formation, LDH leakage ratio, CV-caspase 3-positive ratio, phosphorylated TDP-43 protein inclusion formation, and the like as indices.
(§8) As a result of the screening, ropinirole was found as a promising therapeutic agent for ALS. Tables 5 and 6 show the improvement ratio (%) in the ALS phenotype due to adding ropinirole to the medium. Here, ropinirole was added to the medium on days 35 to 40 from the start of the differentiation induction of each iPS cell. Here, it is assumed that days 35 to 40 from the start of differentiation induction correspond to the early stage of the ALS disease.
as §1, §2, §3, §4

[4] = tested on: motor neurons induced to differentiate from iPS cells derived from ALS patients (FUS-ALS) having a mutation in FUS; experiment: Stress granule formation (G3BP immunostaining), FUS-ALS motor neurons
Experimental: On day 40 from the start of differentiation induction, the formation of stress granules was examined using each differentiation-induced motor neuron in Example I-1. The detection of stress granules was performed by immunostaining with G3BP, which is a marker of stress granules.
as §7, §8, §1, §2, §3, §4

[5] = tested on: motor neurons induced to differentiate from iPS cells derived from SALS patients; experiment: LDH leakage ratio, sporadic ALS model (Example III-3); settings: final concentration 1 μM, days 35 to 40, measured on day 40, FIG. 12
Description: as §5, §6
Subsequently, on day 40 from the start of differentiation induction, the LDH leakage ratio was measured for each motor neuron in the same manner as in Example I-4.
FIG. 12 is a graph showing the measurement result of the LDH leakage ratio. […]

[6] = final concentration 0.1 μM, added days 35 to 40
[7] = final concentration 1 μM, added days 35 to 40
[8] = final concentration 10 μM, added days 35 to 40

CCCN(CCC)CCc1cccc2c1CC(=O)N2 [Ropinirole, 4-(2-di-n-propylaminoethyl)-2(3H)-indole]
LDH leakage ratio improvement ratio ([1]; final concentration 0.1 nM): 10.1% | LDH leakage ratio improvement ratio ([1]; final concentration 1 nM): 31.1% | LDH leakage ratio improvement ratio ([1]; final concentration 10 nM): 39.4% | LDH leakage ratio improvement ratio [1, 6]: 33.5% | LDH leakage ratio improvement ratio [1, 7]: 48.0% | LDH leakage ratio improvement ratio [1, 8]: 47.6% | Neurite length reduction [2]: significantly suppressed | Ectopic localization of FUS protein improvement ratio ([3]; final concentration 0.1 nM): 20.2% | Ectopic localization of FUS protein improvement ratio ([3]; final concentration 1 nM): 45.8% | Ectopic localization of FUS protein improvement ratio ([3]; final concentration 10 nM): 51.2% | Ectopic localization of FUS protein improvement ratio [3, 6]: 55.8% | Ectopic localization of FUS protein improvement ratio [3, 7]: 54.3% | Ectopic localization of FUS protein improvement ratio [3, 8]: 74.4% | Stress granule formation improvement ratio ([4]; final concentration 0.1 nM): 8.2% | Stress granule formation improvement ratio ([4]; final concentration 1 nM): 23.2% | Stress granule formation improvement ratio ([4]; final concentration 10 nM): 39.3% | Stress granule formation improvement ratio [4, 6]: 36.6% | Stress granule formation improvement ratio [4, 7]: 34.4% | Stress granule formation improvement ratio [4, 8]: 66.1% | LDH leakage ratio [5]: significantly decreased
